# Legend:
# [1] = test system: anaesthetised rats; test: intravenous toxicity in anaesthetised rats; format: in vivo; conditions: two anaesthetised rats, ten times the dose giving approximate 50% inhibition of gastric secretion in the anaesthetised rat
# Experimental: (§1) No overt toxicity or side effects were noted during the rat or dog tests. The compound 1-[3-(4-[2-(2,2,2-trifluoroethyl)guanidino]pyrimid-2-yloxy)propyl]imidazole was administered intravenously to groups of two anaesthetised rats and four conscious mice at doses which were respectively ten times and one hundred times the dose, in mg./kg., which produced an approximate 50% inhibition of gastric secretion in the anaesthetised rat.
# [2] = test system: conscious mice; test: intravenous toxicity in conscious mice; format: in vivo; conditions: four conscious mice, one hundred times the dose giving approximate 50% inhibition of gastric secretion in the anaesthetised rat
# Experimental: as §1
compound,measurement,setting,value
"NC(=NCC(F)(F)F)Nc1ccnc(OCCCn2ccnc2)n1 [Example 6, 1-[3-(4-[2-(2,2,2-trifluoroethyl)guanidino]pyrimid-2-yloxy)propyl]imidazole]",toxic symptoms,[1],No toxic symptoms
same,toxic symptoms,[2],No toxic symptoms
